The nature of assay [1]: Kit225 T Cell Assay, IL-23-stimulated STAT-dependent luciferase reporter. Format: cell-based. The following applies: Kit225 T cells, 20 ng/mL human recombinant IL-23, 5-6 hours, luciferase expression. The method, then: (§1) Kit225 T cells with a stably-integrated STAT-dependent luciferase reporter were plated in RPMI (Gibco) containing 10% heat-inactivated FBS (Gibco) and 100 U/mL PenStrep (Gibco). The cells were then stimulated with either 20 ng/mL human recombinant IL-23 or 200 U/mL human recombinant IFNα (PBL InterferonSource) for 5-6 hours. Luciferase expression was measured using the STEADY-GLO® Luciferase Assay System (Promega) according to the manufacturer's instructions. Inhibition data were calculated by comparison to no inhibitor control wells for 0% inhibition and non-stimulated control wells for 100% inhibition. Dose response curves were generated to determine the concentration required to inhibit 50% of cellular response (IC50) as derived by non-linear regression analysis.
(A reporter such as luciferase makes a cellular process visible.)

Assay [2] concerns IFNα Kit225 Reporter (Kit225 T cells with a stably-integrated STAT-dependent luciferase reporter, stimulated with IFNα). Description: Kit225 T Cell Assay, IFNα-stimulated STAT-dependent luciferase reporter. The following applies: 200 U/mL human recombinant IFNα, 5-6 hours, luciferase expression. In kind it is cell-based. The method, then: as §1

Our source for the IC50 values is US12473290B2, “Imidazopyridazine compounds useful as modulators of IL-12, IL-23 and/or IFN alpha responses” (BRISTOL-MYERS SQUIBB COMPANY, priority 2019, dated 2025).

As a reminder, the IC50 is the point on the concentration scale where inhibition reaches its midpoint.

On to `CC(C)Oc1nc(Nc2cc(N[C@@H]3CCCC[C@H]3O)nn3c(C#N)cnc23)ccc1C(=O)N1CCCC1` [Example 1, 6-{[(1R,2R)-2-hydroxycyclohexyl]amino}-8-{[6-(propan-2-yloxy)-5-(pyrrolidine-1-carbonyl)pyridin-2-yl]amino}imidazo[1,2-b]pyridazine-3-carbonitrile], for which the IC50 in assay [1] was 240 nM; in assay [2], 830 nM.

In the case of `N#Cc1cnc2c(Nc3ccc(C(=O)N4CCCC4)c(N4CCCC4)n3)cc(N[C@@H]3CCCC[C@H]3O)nn12` [Example 2, 6-{[(1R,2R)-2-hydroxycyclohexyl]amino}-8-{[6-(pyrrolidin-1-yl)-5-(pyrrolidine-1-carbonyl)pyridin-2-yl]amino}imidazo[1,2-b]pyridazine-3-carbonitrile], the results for the IC50 in assay [1] and in assay [2] were 280 nM and 690 nM, respectively.

With `CN(C)c1nc(Nc2cc(N[C@@H]3CCCC[C@H]3O)nn3c(C#N)cnc23)ccc1C(=O)N1CCCC1` [Example 3, 8-{[6-(dimethylamino)-5-(pyrrolidine-1-carbonyl)pyridin-2-yl]amino}-6-{[(1R,2R)-2-hydroxycyclohexyl]amino}imidazo[1,2-b]pyridazine-3-carbonitrile], the IC50 came to 140 nM in assay [1] and 190 nM in assay [2].

In the case of `N#Cc1cnc2c(Nc3ccc(C(=O)N4CCCC4)c(OCC(F)(F)F)n3)cc(N[C@@H]3CCCC[C@H]3O)nn12` [Example 4, 6-{[(1R,2R)-2-hydroxycyclohexyl]amino}-8-{[5-(pyrrolidine-1-carbonyl)-6-(2,2,2-trifluoroethoxy)pyridin-2-yl]amino}imidazo[1,2-b]pyridazine-3-carbonitrile], the IC50 in assay [1] was 460 nM; in assay [2], 520 nM.

As to `CC(C)(C)Oc1nc(Nc2cc(N[C@H]3CCCC[C@@H]3O)nn3c(C#N)cnc23)ccc1C(=O)N1CCCC1` [Example 5, 8-{[6-(tert-butoxy)-5-(pyrrolidine-1-carbonyl)pyridin-2-yl]amino}-6-{[(1S,2S)-2-hydroxycyclohexyl]amino}imidazo[1,2-b]pyridazine-3-carbonitrile], the figures for the IC50 in assay [1] and in assay [2] were 1130 nM and 1300 nM, respectively.

As to `CC(C)(C)N1CCN(c2cccc(Nc3cc(N[C@@H]4CCCC[C@H]4O)nn4c(C#N)cnc34)n2)C1=O` [Example 6, 8-{[6-(3-tert-butyl-2-oxoimidazolidin-1-yl)pyridin-2-yl]amino}-6-{[(1R,2R)-2-hydroxycyclohexyl]amino}imidazo[1,2-b]pyridazine-3-carbonitrile], the IC50 in assay [1] came out at 580 nM; in assay [2] it was 450 nM.

In the case of `CC(C)(C)C(=O)Nc1cccc(Nc2cc(N[C@@H]3CCCC[C@H]3O)nn3c(C#N)cnc23)n1` [Example 7, N-{6-[(3-cyano-6-{[(1R,2R)-2-hydroxycyclohexyl]amino}imidazo[1,2-b]pyridazin-8-yl)amino]pyridin-2-yl}-2,2-dimethylpropanamide], the IC50 is 610 nM in assay [1] and 810 nM in assay [2].

As to `CC1(C(=O)Nc2cccc(Nc3cc(N[C@@H]4CCCC[C@H]4O)nn4c(C#N)cnc34)n2)CC1` [Example 8, N-{6-[(3-cyano-6-{[(1R,2R)-2-hydroxycyclohexyl]amino}imidazo[1,2-b]pyridazin-8-yl)amino]pyridin-2-yl}-1-methylcyclopropane-1-carboxamide], the figures for the IC50 in assay [1] and in assay [2] were 490 nM and 280 nM, respectively.

Consider `CC(C)(O)C(=O)Nc1cccc(Nc2cc(N[C@@H]3CCCC[C@H]3O)nn3c(C#N)cnc23)n1` [Example 9, N-{6-[(3-cyano-6-{[(1R,2R)-2-hydroxycyclohexyl]amino}imidazo[1,2-b]pyridazin-8-yl)amino]pyridin-2-yl}-2-hydroxy-2-methylpropanamide], for which the results for the IC50 in assay [1] and in assay [2] were 220 nM and 390 nM, respectively.

As to `N#Cc1cnc2c(Nc3cccc(NC(=O)c4ccccc4)n3)cc(N[C@@H]3CCCC[C@H]3O)nn12` [Example 10, N-{6-[(3-cyano-6-{[(1R,2R)-2-hydroxycyclohexyl]amino}imidazo[1,2-b]pyridazin-8-yl)amino]pyridin-2-yl}benzamide], the IC50 in assay [1] came to 150 nM; in assay [2], 270 nM.

Turning to `CC1(C)CCCN1C(=O)c1ccc(Nc2cc(N[C@H]3CCCC[C@@H]3O)nn3c(C#N)cnc23)nc1` [Example 11, 8-{[5-(2,2-dimethylpyrrolidine-1-carbonyl)pyridin-2-yl]amino}-6-{[(1S,2S)-2-hydroxycyclohexyl]amino}imidazo[1,2-b]pyridazine-3-carbonitrile], the IC50 in assay [1] stood at 560 nM; in assay [2] it was 360 nM.

Turning to `CC(C)(C)Oc1nc(Nc2cc(N[C@@H]3CCCC[C@H]3O)nn3c(C#N)cnc23)ccc1C(=O)N1CCCC1` [Example 12, 8-{[6-(tert-butoxy)-5-(pyrrolidine-1-carbonyl)pyridin-2-yl]amino}-6-{[(1R,2R)-2-hydroxycyclohexyl]amino}imidazo[1,2-b]pyridazine-3-carbonitrile], the IC50 in assay [1] amounted to 2730 nM; in assay [2], 380 nM.

Turning to `N#Cc1cnc2c(Nc3ccc(C(=O)N4CCCC4)c(OCC(F)F)n3)cc(N[C@H]3CCCC[C@@H]3O)nn12` [Example 13, 8-{[6-(2,2-difluoroethoxy)-5-(pyrrolidine-1-carbonyl)pyridin-2-yl]amino}-6-{[(1S,2S)-2-hydroxycyclohexyl]amino}imidazo[1,2-b]pyridazine-3-carbonitrile], the IC50 in assay [1] was determined as 450 nM; in assay [2], 640 nM.

As to `N#Cc1cnc2c(Nc3ccc(C(=O)N4CCCC4)c(N4CCCC4)n3)cc(N[C@H]3CCCC[C@@H]3O)nn12` [Example 14, 6-{[(1S,2S)-2-hydroxycyclohexyl]amino}-8-{[6-(pyrrolidin-1-yl)-5-(pyrrolidine-1-carbonyl)pyridin-2-yl]amino}imidazo[1,2-b]pyridazine-3-carbonitrile], the values for the IC50 in assay [1] and in assay [2] were 660 nM and 490 nM, respectively.

For the molecule `N#Cc1cnc2c(Nc3ccc(C(=O)N4CCCC4)c(N4CC(F)C4)n3)cc(N[C@H]3CCCC[C@@H]3O)nn12` [Example 15, 8-{[6-(3-fluoroazetidin-1-yl)-5-(pyrrolidine-1-carbonyl)pyridin-2-yl]amino}-6-{[(1S,2S)-2-hydroxycyclohexyl]amino}imidazo[1,2-b]pyridazine-3-carbonitrile], the IC50 in assay [1] came out at 650 nM; in assay [2], 820 nM.

Regarding `CC1(C)CCCN1C(=O)c1ccc(Nc2cc(N[C@@H]3CCCC[C@H]3O)nn3c(C#N)cnc23)nc1` [Example 16, 8-{[5-(2,2-dimethylpyrrolidine-1-carbonyl)pyridin-2-yl]amino}-6-{[(1R,2R)-2-hydroxycyclohexyl]amino}imidazo[1,2-b]pyridazine-3-carbonitrile], the IC50 in assay [1] came to 90 nM; in assay [2], 130 nM.

Take `CC(C)(C)NC(=O)c1cccc(Nc2cc(NC34CC5CC(CC(O)(C5)C3)C4)nn3c(C#N)cnc23)n1` [Example 17, N-tert-butyl-6-({3-cyano-6-[(3-hydroxyadamantan-1-yl)amino]imidazo[1,2-b]pyridazin-8-yl}amino)pyridine-2-carboxamide]: the IC50 was 420 nM in assay [1] and 490 nM in assay [2].

For the molecule `COc1cccc2ccc(Nc3cc(NC45CC6CC(CC(O)(C6)C4)C5)nn4c(C#N)cnc34)nc12` [Example 18, 6-[(3-hydroxyadamantan-1-yl)amino]-8-[(8-methoxyquinolin-2-yl)amino]imidazo[1,2-b]pyridazine-3-carbonitrile], the values for the IC50 in assay [1] and in assay [2] were 190 nM and 460 nM, respectively.

Regarding `N#Cc1cnc2c(Nc3ccc4c(C(F)(F)F)cc(C(F)(F)F)nc4n3)cc(NC34CC5CC(O)(CC(O)(C5)C3)C4)nn12` [Example 19, 8-{[5,7-bis(trifluoromethyl)-1,8-naphthyridin-2-yl]amino}-6-[(3,5-dihydroxyadamantan-1-yl)amino]imidazo[1,2-b]pyridazine-3-carbonitrile], the IC50 was determined as 590 nM in assay [1] and 810 nM in assay [2].

In the case of `N#Cc1cnc2c(Nc3cccc(C(F)(F)F)n3)cc(NC34CC5CC(O)(CC(O)(C5)C3)C4)nn12` [Example 20, 6-[(3,5-dihydroxyadamantan-1-yl)amino]-8-{[6-(trifluoromethyl)pyridin-2-yl]amino}imidazo[1,2-b]pyridazine-3-carbonitrile], the IC50 in assay [1] turned out to be 440 nM; in assay [2], 150 nM.

As for `COc1ccc(Nc2cc(NC34CC5CC(O)(CC(O)(C5)C3)C4)nn3c(C#N)cnc23)nc1NC(=O)C(C)(C)C` [Example 21, N-[6-({3-cyano-6-[(3,5-dihydroxyadamantan-1-yl)amino]imidazo[1,2-b]pyridazin-8-yl}amino)-3-methoxypyridin-2-yl]-2,2-dimethylpropanamide], the IC50 in assay [1] was determined as 430 nM; in assay [2], 760 nM.

`COc1cccc2ccc(Nc3cc(NC45CC6CC(O)(CC(F)(C6)C4)C5)nn4c(C#N)cnc34)nc12` (stereo not shown) [Example 22, 6-[(3-fluoro-5-hydroxyadamantan-1-yl)amino]-8-[(8-methoxyquinolin-2-yl)amino]imidazo[1,2-b]pyridazine-3-carbonitrile]: the IC50 stood at 360 nM in assay [1] and 850 nM in assay [2].

Take `N#Cc1cnc2c(Nc3ccc(C(=O)N4CCCC4)cn3)cc(NC3CCOCC3)nn12` [Example 23, 6-[(oxan-4-yl)amino]-8-{[5-(pyrrolidine-1-carbonyl)pyridin-2-yl]amino}imidazo[1,2-b]pyridazine-3-carbonitrile]: the IC50 in assay [1] was found to be 470 nM; in assay [2] it was 340 nM.
